Test results reported in patent publication US7244712B2, “Aminoglycoside antibiotics and methods of using same” (priority 2004, dated 2007).
Where two headings read alike, the source gives them in different places.

Tests used:
[1] = target: human A-site decoding region construct (H), D-RNA; experiment: Fluorescence anisotropy binding, D-RNA human A-site decoding region construct H
Text: (§1) Experiments were designed to probe the stereospecificity of aminoglycoside binding to the RNA constructs shown in FIG. 9 because these small rRNA constructs mimic ribosomal decoding region RNA function. The three constructs shown include a bacterial 16S A-site rRNA construct (B) (27), its human counterpart (H), and an RNA aptamer (J6f1) selected to bind to the aminoglycoside tobramycin (12,15,16).
(§2) L-aminoglycoside binding to D-RNA sequences are energetically equivalent to binding the enantiotopic D-aminoglycoside to an L-RNA sequence. Initial binding experiments were carried out using enantiomerically pure L-RNA constructs, B, H, and J6f1 (FIG. 9A-C) and D-aminoglycoside compounds. Circular dichroism spectra of the purified constructs confirm the enantiomeric relationship of the corresponding D-RNA and L-RNA constructs (FIGS. 1A-C). The constructs were tested for aminoglycoside binding using the fluorescence anisotropy method described in Example 4. In these measurements, the fluorescent aminoglycoside CRP bearing a rhodamine chromaphore is used to monitor binding to the decoding region constructs (B and H) and fluorescent aminoglycoside CRT bearing a rhodamine chromaphore was used to monitor binding to RNA construct J6f1 (FIG. 9C). See, for example, Wang, Y. and Rando, R. R. Chem. Biol. (1995) 2, 281-290; Hamasaki, K., Killian, J. Cho, J., and Rando, R. R. Biochemistry (1998) 37, 656-663; and Cho, J. and Rando, R. R. (1999) Biochemistry 38, 8548-8554.
(§3) 5-Carboxytetramethylrhodamine-labeled paromomycin (CRP) and tobramycin (CRT) concentrations were determined spectroscopically at 550 nm using a molar extinction coefficient of 6.00×10 4 M −1 cm −1. Fluorescence anisotropy measurements were performed on a Perkin-Elmer LS-50B luminescence spectrometer equipped with a thermostat accurate to ±0.1° C. as indicated previously (Wang, Y., Hamasaki, K., & Rando, R. R. (1997) Biochemistry 36, 768-779). The tracer solution was excited at 550 nm and monitored at 580 nm. The integration time was 5 s. […]
(§4) Equation 1 was used for the determination of the dissociation constant (Kd) for the interactions between RNA or ribosome and CRP. A=A0+DA{(RNA)0+(CRP)0+Kd−({(RNA)0+(CRP)0+Kd}^2−4(RNA)0(CRP)0)½}/2 where A and A0 are the fluorescence anisotropy of CRP in the presence and absence of RNA, respectively, and DA is the difference between the fluorescence anisotropy of CRP in the presence of an extrapolated infinite concentration of RNA minus the fluorescence anisotropy in the absence of RNA. […]
(§5) Equation 2 is used for the calculation of the KD values in the competition binding assay. […] Both Kd and KD were determined by non-linear curve fitting using the equations described above, and are presented as mean values of three independent measurements.

80S ribosome = experiment: Fluorescence anisotropy binding to 80S ribosomes; set-up: species or system yeast (S. cerevisiae); conditions: yeast ribosomes
Method: (§6) After establishing the lack of stereospecificity in the binding of aminoglycosides to the A-site RNA constructs (FIG. 9A-C) where the binding affinity, KD, is about 0.1 μM to about 100 μM, the stereospecificity of aminoglycoside binding to intact ribosomes was determined. Both yeast and E. coli ribosomes were prepared and aminoglycoside binding was measured using fluorescence anisotropy methods. For example, fluorescence anisotropy methods recited in Wang, Y., and Rando, R. R. Chem. Biol. (1995) 2, 281-290; and Wang, Y., Hamasaki, K., and Rando, R. R. Biochemistry (1997) 36,768-779. CRP was used as the binding probe. […] Binding data reported herein for aminoglycoside compounds with eukaryotic yeast ribosomes are similar to binding data for said aminoglycoside compounds with ribosoimes in bacteria and with eukaryotic A-site rRNA constructs.
(§7) 5-Carboxytetramethylrhodamine-labeled paromomycin (CRP) and tobramycin (CRT) concentrations were determined spectroscopically at 550 nm using a molar extinction coefficient of 6.00×10 4 M −1 cm −1. Fluorescence anisotropy measurements were performed on a Perkin-Elmer LS-50B luminescence spectrometer equipped with a thermostat accurate to ±0.1° C. as indicated previously (Wang, Y., Hamasaki, K., & Rando, R. R. (1997) Biochemistry 36, 768-779). The tracer solution was excited at 550 nm and monitored at 580 nm. The integration time was 5 s. For every point, 6 measurements were taken, and their average values were used for calculation. Measurements were carried out in a buffer solution containing 150 mM NaCl, 5 mM KCl, 1 mM CaCl2, 1 mM MgCl2, and 20 mM HEPES (pH 7.5). Prior to measurements, RNA constructs were renatured by incubating in binding buffer {150 mM NaCl, 5 mM KCl, 1 mM CaCl2, 1 mM MgCl2, and 20 mM HEPES (pH 7.5)} for 3 minutes at 90° C. followed by slow cooling to 25° C.
(§8) Equation 1 was used for the determination of the dissociation constant (Kd) for the interactions between RNA or ribosome and CRP. A=A0+DA{(RNA)0+(CRP)0+Kd−({(RNA)0+(CRP)0+Kd}^2−4(RNA)0(CRP)0)½}/2 where A and A0 are the fluorescence anisotropy of CRP in the presence and absence of RNA, respectively, and DA is the difference between the fluorescence anisotropy of CRP in the presence of an extrapolated infinite concentration of RNA minus the fluorescence anisotropy in the absence of RNA. (RNA)0 and (CRP)0 are the initial concentrations of RNA and CRP, respectively.
(§9) Equation 2 is used for the calculation of the KD values in the competition binding assay. (aminoglycoside)0={KD(A−−A)/Kd(A−A0)+1}{(RNA)0−Kd(A−A0)/(A−−A)−(CRP)0(A−A0)/(A−−A)} where KD is the dissociation constant between the RNA and the aminoglycosides; (aminoglycoside)0 is the initial concentration of the aminoglycosides; AL is anisotropy of completely bound tracer. Both Kd and KD were determined by non-linear curve fitting using the equations described above, and are presented as mean values of three independent measurements.
The purification of yeast 80S ribosomes from S. cerevisiae strain YSB 758 was carried out according to the published procedure (Verschoor, A., Warner, J. R., Srivastava, S., Grassucci, R. A., & Frank, J. (1997) Nucl. Acid Res. 26, 655-661). S. cerevisiea YSB 758 were grown for 12 hrs at 30° C. in 2L of YPD medium, containing: 20 g bacto peptone, 20 g glucose, 10 g yeast extract and 0.15 g tryptophan per 1 L, pH 7.0. The cells were lysed by 5-10 cycles of 1 min vigorous shaking with glass beads with a vortex, followed by cooling on ice. Clarified cell extract (about 9 mL total, used in 6 portions in 1.5 mL aliqouts) was carefully loaded on top of 2 mL of a cushion, composed of 10% sucrose and 5% ammonium sulfate dissolved in buffer YR1 (20 mM HEPES pH=7.4, 16 mM magnesium chloride, 100 mM potassium chloride, 5 mM DTT, and 0.5 mM EDTA). The ribosomes were collected by centrifugation in Beckman TL100.3 rotor at 75000 rpm for 3 h. The supernatants were carefully discarded and ribosomes were collected in buffer YR1. […]

[2] = target: bacterial 16S A-site rRNA construct (B), L-RNA; experiment: Fluorescence anisotropy binding, L-RNA bacterial A-site decoding region construct B
Text: as §1, §2, §3, §4, §5

[3] = target: human A-site decoding region construct (H), L-RNA; experiment: Fluorescence anisotropy binding, L-RNA human A-site decoding region construct H
Text: as §1, §2, §3, §4, §5

70S ribosome = experiment: Fluorescence anisotropy binding to 70S ribosomes; conditions: E. coli ribosomes
Method: as §6, §7, §8, §9
The purification of E. coli (E600) 70S ribosomes was carried out according to the published procedure (Lazaro, E., van den Broek, L. A. G. M., Felix, A. S., Ottenheijm, H. C. J., Ballesta, J. P. G. (1991) Biochemistry 30, 9642-9648). E. coli MRE600 were grown for 12 h in 6L of LB medium (10 g trypton, 5 g yeast extract, 5 g NaCl per 1 L, pH 7.0) at 37° C. Crude ribosomes were precipitated from clarified supernatant by 4 h centrifugation at 25,000 rpm in Beckman SW 28 rotor at 4° C. The ribosome pellets were collected in 5 mL of buffer BR1, containing 10 mM HEPES, pH 7.5, 500 mM ammonium acetate, 100 mM magnesium chloride and 2.5 mM DTT. The ribosome suspension was centrifuged for 20 min at 15000 rpm to be clarified. The clarified sample was loaded over two layers of 20% and 40% sucrose in buffer BR1 and centrifuged for 18 hr at 19000 rpm in Beckman SW28 rotor at 4° C. […]

[4] = target: bacterial 16S A-site rRNA construct (B), D-RNA; experiment: Fluorescence anisotropy binding, D-RNA bacterial A-site decoding region construct B
Text: as §1, §2, §3, §4, §5

RNA aptamer J6f1, L-RNA = experiment: Fluorescence anisotropy binding, L-J6f1 tobramycin binding aptamer
Text: as §1, §2, §7, §8, §5

RNA aptamer J6f1, D-RNA = experiment: Fluorescence anisotropy binding, D-J6f1 tobramycin binding aptamer
Text: as §1, §2, §3, §4, §5

[5] = tested on: E. coli S30 extract, containing 70S ribosomes; experiment: In vitro protein translation (CAT mRNA, 35S methionine incorporation); assay type: biochemical; conditions: quantitation of gel bands, read-out: IC50, concentration producing 50% inhibition of translation
Method: Protein translation was performed from chloramphenicol acetyl transferase (CAT) mRNA. […] A commercial E. coli ribosomal suspension was supplemented with an E. coli extract containing the required elements for translation. These include translation factors, tRNAs, and aminoacyl tRNA synthases. Plasmid, T7 RNA polymerase and amino acids were added to the reaction mixture, and both transcription and translation steps were performed in the same vial. The effects of the aminoglycosides on the translation process were evaluated by measuring the incorporation of ^35S methionine in the translated chloramphenicol acetyl transferase protein.
In vitro translation was performed by using PROTEINscript™-PRO (Ambion) kit. […] Reaction mixtures contained appropriate concentrations of antibiotic (neomycin B, D- and L-neamine). The protein was translated from CAT mRNA, transcribed from control DNA template containing CAT gene under control of the T7 promotor. The product, ˜25 kDa chloramphenicol acetyl transferase, was labeled during translation with 1 μCi ^35S methionine (New England Nuclear) per reaction (no cold methionine was added).
Following the translation, the samples were analyzed by electrophoresis on 4-20% SDS mini-gels (Invitrogen) for 1.5 h at 120V. Gels were fixed with 40% methanol/10% acetic acid and exposed to Molecular Dynamics phosphoimager plates, which were read on a Personal FX phosphoimager (Bio-Rad) and quantitated using QuantityOne™ software.

[6] = competition with CRP, read-out: Dissociation constant (KD) with 80S ribosome
[7] = competition with CRP, read-out: Dissociation constant (KD) with 70S ribosome
[8] = competition with CRP, read-out: Dissociation constant of aminoglycoside complex with D-H
[9] = competition with CRP, read-out: Dissociation constant of aminoglycoside complex with L-B
[10] = competition with CRP, read-out: Dissociation constant of aminoglycoside complex with L-H
[11] = competition with CRT, read-out: Dissociation constant of aminoglycoside complex with L-J6f1
[12] = competition with CRP, read-out: Dissociation constant of aminoglycoside complex with D-B
[13] = competition with CRT, read-out: Dissociation constant of aminoglycoside complex with D-J6f1

Compound | Kd (80S ribosome; [6]) | Kd (70S ribosome; [7]) | Kd [1, 8] | Kd [2, 9] | Kd [3, 10] | Kd (RNA aptamer J6f1, L-RNA; [11]) | Kd [4, 12] | also measured
5-carboxytetramethyl rhodamine-labeled paromomycin [CRP] |  |  |  |  |  |  |  | Kd ([1]; direct binding of fluorescent tracer CRP, read-out: Dissociation constant of CRP complex with D-H): 1.36 ± 0.18 µM; Kd (80S ribosome; direct binding of CRP, read-out: Dissociation constant (Kd) of CRP with 80S Ribosome): 0.0032 ± 0.0009 µM; Kd ([2]; direct binding of fluorescent tracer CRP, read-out: Dissociation constant of CRP complex with L-B): 0.224 ± 0.0226 µM; Kd ([3]; direct binding of fluorescent tracer CRP, read-out: Dissociation constant of CRP complex with L-H): 0.9 ± 0.076 µM; Kd (70S ribosome; direct binding of CRP, read-out: Dissociation constant (Kd) of CRP with 70S Ribosome): 0.0037 ± 0.0011 µM; Kd ([4]; direct binding of fluorescent tracer CRP, read-out: Dissociation constant of CRP complex with D-B): 0.17 ± 0.0175 µM
5-carboxytetramethyl rhodamine-labeled tobramycin [CRT] |  |  |  |  |  |  |  | Kd (RNA aptamer J6f1, L-RNA; direct binding of fluorescent tracer CRT, read-out: Dissociation constant of CRT complex with L-J6f1): 0.2 ± 0.028 µM; Kd (RNA aptamer J6f1, D-RNA; direct binding of fluorescent tracer CRT, read-out: Dissociation constant of CRT complex with D-J6f1): 0.19 ± 0.011 µM
NCC1OC(OC2C(N)CC(N)C(O)C2O)C(N)C(O)C1O (single isomer, unassigned) [4-Isomer of L-Neamine (ent-3), 4-isomer of L-Neamine] | 33 ± 5.84 µM | 6.4 ± 0.87 µM |  |  |  |  |  | 
NCC1OC(OC2C(O)C(N)CC(N)C2O)C(N)C(O)C1O (single isomer, unassigned) [5-Isomer of L-Neamine (ent-2), 5-isomer of L-Neamine] | 1.53 ± 0.12 µM | 1.55 ± 0.11 µM |  |  |  |  |  | 
NCC1OC(OC2C(O)C(N)CC(N)C2O)C(N)C(O)C1O [5-Isomer of D-Neamine (2), 5-isomer of D-Neamine] | 2.22 ± 0.11 µM | 0.91 ± 0.13 µM |  |  |  |  |  | 
NCC1OC(OC2C(N)CC(N)C(O)C2O)C(N)C(O)C1O [6-Isomer of D-Neamine (3), 6-isomer of D-Neamine] | 22.5 ± 1.25 µM | 30.7 ± 1.7 µM |  |  |  |  |  | 
NC[C@@H]1O[C@H](O[C@H]2[C@@H](O)[C@H](O[C@@H]3[C@@H](O)[C@H](N)C[C@H](N)[C@H]3O[C@H]3O[C@H](CO)[C@@H](O)[C@H](O)[C@H]3N)O[C@@H]2CO)[C@H](N)[C@@H](O)[C@@H]1O [Paromomycin] | 1.97 ± 0.1 µM | 1.41 ± 0.15 µM | 2.2 ± 0.17 µM | 6.38 ± 0.27 µM | 2.76 ± 0.26 µM | 4.6 ± 0.37 µM | 1.65 ± 0.35 µM | 
[H]/N=C(/N)N[C@H]1[C@H](O)[C@@H](O)[C@H](O[C@@H]2O[C@@H](C)[C@](O)(C=O)[C@H]2O[C@@H]2O[C@@H](CO)[C@H](O)[C@@H](O)[C@@H]2NC)[C@@H](N/C(N)=N\[H])[C@@H]1O [Streptomycin] | 30.5 µM |  |  |  |  |  |  | Dissociation constant (KD) with 70S ribosome (70S ribosome; competition with CRP): did not exhibit measurable binding
NC[C@H]1O[C@H](O[C@H]2[C@H](O)[C@@H](O[C@H]3O[C@H](CO)[C@@H](O)[C@H](N)[C@H]3O)[C@H](N)C[C@@H]2N)[C@H](N)C[C@@H]1O [Tobramycin] | 3.69 ± 0.31 µM | 1.76 ± 0.38 µM | 1.57 ± 0.21 µM | 4.39 ± 0.37 µM | 3.22 ± 0.26 µM | 2.18 ± 0.23 µM | 1.4 ± 0.24 µM | Kd (RNA aptamer J6f1, L-RNA; competition with CRT, listed as tobramycin, read-out: Dissociation constant of aminoglycoside complex with L-J6f1): 2.2 µM; Kd (RNA aptamer J6f1, D-RNA; [13]): 0.0052 ± 0.00042 µM; Kd (RNA aptamer J6f1, D-RNA; read-out: KD of tobramycin with RNA aptamer J6f1): 0.005 µM
Neomycin | 0.11 ± 0.014 µM | 0.14 ± 0.038 µM | 0.26 ± 0.0036 µM | 0.109 ± 0.0046 µM | 1.41 ± 0.014 µM | 0.36 ± 0.021 µM | 0.052 ± 0.00186 µM | IC50 [5]: 15 µM; Kd (70S ribosome; competition with CRP, listed as neomycin B, read-out: Dissociation constant (KD) with 70S ribosome): ~0.1 µM; Kd (RNA aptamer J6f1, D-RNA; [13]): 5.59 ± 1.39 µM
